In ChEMBL document CHEMBL1136068 (Bioorg Med Chem Lett, 2003):
The source made the active and inactive calls. The rule behind the calls is not given here.

Tests used:
Type in all cases: functional
[1] = target: T1, Androgen receptor (Homo sapiens) (UniProt P10275); assay: Antagonist efficacy at human androgen (hAR) receptor; not active
T1 sequence (whole entry): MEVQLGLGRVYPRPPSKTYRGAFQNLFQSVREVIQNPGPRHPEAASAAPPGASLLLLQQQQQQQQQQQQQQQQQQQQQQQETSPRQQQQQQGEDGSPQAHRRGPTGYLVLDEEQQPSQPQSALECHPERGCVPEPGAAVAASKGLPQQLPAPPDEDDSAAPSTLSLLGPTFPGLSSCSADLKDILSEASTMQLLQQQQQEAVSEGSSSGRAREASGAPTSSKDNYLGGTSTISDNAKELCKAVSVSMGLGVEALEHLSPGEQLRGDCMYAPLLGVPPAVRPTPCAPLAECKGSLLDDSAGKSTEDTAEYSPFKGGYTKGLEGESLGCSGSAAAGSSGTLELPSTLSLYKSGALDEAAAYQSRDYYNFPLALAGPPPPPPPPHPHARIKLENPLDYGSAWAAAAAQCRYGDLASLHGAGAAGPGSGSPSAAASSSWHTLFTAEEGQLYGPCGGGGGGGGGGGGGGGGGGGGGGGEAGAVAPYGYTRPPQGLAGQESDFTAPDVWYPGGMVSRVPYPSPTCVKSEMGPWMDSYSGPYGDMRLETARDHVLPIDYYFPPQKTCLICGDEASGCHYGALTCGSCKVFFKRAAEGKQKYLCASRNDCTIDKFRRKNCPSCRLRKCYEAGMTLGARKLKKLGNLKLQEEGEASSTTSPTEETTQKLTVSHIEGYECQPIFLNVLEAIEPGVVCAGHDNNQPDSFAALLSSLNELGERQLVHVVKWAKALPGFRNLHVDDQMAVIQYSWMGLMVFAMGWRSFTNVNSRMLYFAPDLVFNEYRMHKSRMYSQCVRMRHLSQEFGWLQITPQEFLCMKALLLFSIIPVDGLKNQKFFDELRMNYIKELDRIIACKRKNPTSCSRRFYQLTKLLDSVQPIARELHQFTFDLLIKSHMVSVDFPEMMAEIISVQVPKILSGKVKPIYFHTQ

Androgen receptor [2] = target: T2, Androgen receptor (Homo sapiens, UniProt P10275); assay: Antagonist activity against Androgen receptor; not active
T2 sequence (P10275 whole entry): T1 sequence (whole entry)

Estrogen receptor = Estrogen receptor (Homo sapiens, UniProt Q92731+P03372); assay: Antagonist activity at estrogen (hER) receptor; Efficacy <20% and/or potency >[…] nM
Androgen receptor [3] = target: T2, Androgen receptor; assay: Antagonist activity against human Androgen receptor
[4] = target: T3, Mineralocorticoid receptor (Homo sapiens) (UniProt P08235); assay: Antagonist efficacy at mineralocorticoid receptor (hMR); Efficacy <20% and/or potency >[…] nM
T3 sequence (whole entry): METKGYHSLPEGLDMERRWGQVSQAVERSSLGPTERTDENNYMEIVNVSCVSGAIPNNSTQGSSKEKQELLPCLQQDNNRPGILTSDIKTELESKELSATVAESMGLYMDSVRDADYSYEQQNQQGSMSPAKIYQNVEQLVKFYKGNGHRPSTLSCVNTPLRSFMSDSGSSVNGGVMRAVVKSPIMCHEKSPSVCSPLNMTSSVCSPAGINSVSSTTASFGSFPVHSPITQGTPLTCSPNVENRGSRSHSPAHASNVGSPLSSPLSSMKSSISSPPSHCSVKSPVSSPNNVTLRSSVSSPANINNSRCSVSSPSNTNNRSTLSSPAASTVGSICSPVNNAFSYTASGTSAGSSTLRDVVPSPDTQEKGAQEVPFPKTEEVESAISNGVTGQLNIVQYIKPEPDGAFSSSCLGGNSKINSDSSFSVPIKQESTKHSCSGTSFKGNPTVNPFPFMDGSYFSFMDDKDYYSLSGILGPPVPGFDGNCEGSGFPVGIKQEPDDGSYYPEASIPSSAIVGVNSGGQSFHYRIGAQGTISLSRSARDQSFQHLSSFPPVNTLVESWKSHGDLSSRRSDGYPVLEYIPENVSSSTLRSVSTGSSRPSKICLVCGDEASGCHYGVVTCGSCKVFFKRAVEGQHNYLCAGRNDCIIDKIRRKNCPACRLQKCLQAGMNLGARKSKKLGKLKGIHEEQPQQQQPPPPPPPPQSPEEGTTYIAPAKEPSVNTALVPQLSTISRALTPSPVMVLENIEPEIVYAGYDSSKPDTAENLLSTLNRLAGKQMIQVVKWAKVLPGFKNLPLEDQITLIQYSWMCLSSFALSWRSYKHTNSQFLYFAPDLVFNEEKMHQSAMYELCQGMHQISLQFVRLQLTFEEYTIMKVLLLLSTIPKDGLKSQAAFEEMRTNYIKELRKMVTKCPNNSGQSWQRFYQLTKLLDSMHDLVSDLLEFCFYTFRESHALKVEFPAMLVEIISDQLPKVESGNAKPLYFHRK

[5] = target: T3, Mineralocorticoid receptor (Homo sapiens); assay: Antagonist activity at mineralocorticoid receptor (hMR); Efficacy <20% and/or potency >[…] nM
[6] = target: T4, Glucocorticoid receptor (Homo sapiens) (UniProt P04150); assay: Antagonist efficacy at glucocorticoid (hGR) receptor
T4 sequence (whole entry): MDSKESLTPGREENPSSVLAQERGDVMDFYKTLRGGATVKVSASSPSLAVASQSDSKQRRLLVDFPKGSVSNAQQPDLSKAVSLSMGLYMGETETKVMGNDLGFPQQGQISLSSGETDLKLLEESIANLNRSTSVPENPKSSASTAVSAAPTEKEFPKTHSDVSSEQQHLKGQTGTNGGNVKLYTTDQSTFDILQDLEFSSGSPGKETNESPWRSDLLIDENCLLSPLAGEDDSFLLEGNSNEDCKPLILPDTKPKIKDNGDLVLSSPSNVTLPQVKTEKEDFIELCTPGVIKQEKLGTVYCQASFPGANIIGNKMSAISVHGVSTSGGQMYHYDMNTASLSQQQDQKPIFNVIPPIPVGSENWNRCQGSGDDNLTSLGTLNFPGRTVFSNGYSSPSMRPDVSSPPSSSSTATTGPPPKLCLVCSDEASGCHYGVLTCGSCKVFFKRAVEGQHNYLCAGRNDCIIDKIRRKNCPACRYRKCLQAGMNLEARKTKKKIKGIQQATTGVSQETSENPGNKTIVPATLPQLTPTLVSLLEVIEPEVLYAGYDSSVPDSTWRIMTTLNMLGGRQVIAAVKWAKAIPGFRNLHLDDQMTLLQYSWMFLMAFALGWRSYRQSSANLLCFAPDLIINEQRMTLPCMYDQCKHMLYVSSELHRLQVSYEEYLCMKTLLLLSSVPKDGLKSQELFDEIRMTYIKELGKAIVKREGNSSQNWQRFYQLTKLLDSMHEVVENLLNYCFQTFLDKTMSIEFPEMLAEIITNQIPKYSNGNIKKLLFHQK

CC(C)=C/C=C1\Oc2ccc(F)cc2-c2ccc3c(c21)C(C)=CC(C)(C)N3
Efficacy [1]: < 20% | IC50 (Androgen receptor [2]): > 1000 nM

CC/C(C)=C1\Oc2ccc(F)cc2-c2ccc3c(c21)C(C)=CC(C)(C)N3
Efficacy (Estrogen receptor): inactive | IC50 (Androgen receptor [3]): 250 nM | Efficacy [4]: inactive | Efficacy [5]: inactive

CC(=O)C[C@]1(C(C)=O)CC[C@H]2C3C[C@H](C)C4=CC(=O)CC[C@]4(C)[C@H]3CC[C@@]21C (some centres not stated)
Efficacy [6]: 157%
